Measured values reported in patent US9079913B2, “Spiro-oxindole MDM2 antagonists” (The Regents of the University of Michigan, priority 2009, dated 2015).
Read-outs that look alike come from different tables or passages of the source.

Tests used:
[1] = biological target: recombinant human His-tagged MDM2 protein (residues 1-118) (Homo sapiens (Human), UniProt Q00987); test: Fluorescence-polarization MDM2 binding assay; conditions: for IC50: Table 19A, FP binding assay, read-out: MDM2 IC50;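 as to all read-outs here: fluorescence polarization read after three hours of incubation in potassium phosphate buffer containing bovine gamma globulin and Triton X-100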
Sequence of recombinant human His-tagged MDM2 protein (residues 1-118) (Q00987 1-118): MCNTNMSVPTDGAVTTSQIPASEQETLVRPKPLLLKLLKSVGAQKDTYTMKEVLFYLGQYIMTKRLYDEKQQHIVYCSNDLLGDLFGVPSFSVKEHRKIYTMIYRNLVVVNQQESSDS

[2] = tested on: Isogenic HCT-116 colon cancer cell lines; test: cells; type: cell-based; conditions: cell growth;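 also: cells grown in 96-well plates in McCoy's 5A medium with 10% FBS, exposed to compound for 4 days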
Method: Cells were seeded in 96-well flat bottom cell culture plates at a density of 2−3×10^3 cells/well with compounds and incubated for 4 days.

[3] = tested on: cancer cell lines with wild-type p53 / mutated or deleted p53 (ATCC); test: Cell growth assay (WST-8), other cancer cell lines; type: cell-based
[4] = In vitro microsomal stability, rat; type: in vitro ADME; conditions: for Microsomal stability, % remaining: Rat Microsome, same batch; for microsomal stability (in words) / % of compound remaining when incubated in rat liver microsomes with NADPH: rat liver microsomes; for half-life: rat, liver microsomes
[5] = In vitro microsomal stability, human; type: in vitro ADME; conditions: for Microsomal stability, % remaining: Human Microsome, same batch; for half-life: human, liver microsomes; for % of compound remaining when incubated in human liver microsomes with NADPH / microsomal stability (in words): human liver microsomes
[6] = Pharmacokinetic studies in rats; type: in vivo, rat; conditions: for oral bioavailability / oral pharmacokinetics in rats (in words): oral dosing; for bioavailability / half-life / AUC(0-t) / Cmax: male rats, oral dose 15 mg/kg; for AUC(0-t): read-out: AUC(0-t); for Cmax: read-out: Cmax
Method: Pharmacokinetic studies on MDM2 inhibitors were carried out in rat. For comparison, the MDM2 inhibitor, AT-219, was also studied.

[7] = Homo sapiens, HCT-116, read-out: HCT-116 (p53-/-) IC50, Table 19A, HCT-116 p53-/-
[8] = Homo sapiens, HCT-116, read-out: HCT-116 (p53 wild-type) IC50, Table 19A, HCT-116 p53 wild-type
[9] = Homo sapiens, LNCaP, Table 19A, LNCAP cells, p53 wild-type, cell growth, read-out: LNCAP (p53 wild-type) IC50
[10] = Homo sapiens, PC-3, Table 19A, PC-3 cells, deleted p53, cell growth, read-out: PC-3 (deleted p53) IC50
[11] = rat liver microsomes with NADPH
[12] = human liver microsomes with NADPH

Compound `CC(C)(C)C[C@H]1N[C@@H](C(=O)NCC[C@H](O)CN2CC[C@@H](O)C2)[C@H](c2cccc(Cl)c2)[C@@]12C(=O)Nc1cc(Cl)c(F)cc12` [MI-519-29] has an IC50 [1] of less than 1000 nM, an IC50 [2, 7] greater than 10000 nM and an IC50 [2, 8] of less than 5000 nM. The IC50 [3, 9] was less than 5000 nM, the IC50 [3, 10] was greater than 10000 nM and the “Microsomal stability, % remaining” value ([4]; 0 min) was 100.00%. The “Microsomal stability, % remaining” value ([4]; 5 min) was 93.42%, the “Microsomal stability, % remaining” value ([4]; 10 min) was 84.91% and the “Microsomal stability, % remaining” value ([4]; 15 min) was 82.81%. For the same compound, the “Microsomal stability, % remaining” value ([4]; 30 min) was 70.75%, the “Microsomal stability, % remaining” value ([4]; 45 min) was 71.89% and the “Microsomal stability, % remaining” value ([4]; 60 min) was 69.91%. For the same compound, the “microsomal stability (in words)” value [4] was “improved stability over MI-219”, the “% of compound remaining when incubated in rat liver microsomes with NADPH” value ([4]; 0 min) was 100.00% and the “% of compound remaining when incubated in rat liver microsomes with NADPH” value ([4]; 5 min) was 93.42%. The “% of compound remaining when incubated in rat liver microsomes with NADPH” value ([4]; 10 min) was 84.91%, the “% of compound remaining when incubated in rat liver microsomes with NADPH” value ([4]; 15 min) was 82.81% and the “% of compound remaining when incubated in rat liver microsomes with NADPH” value ([4]; 30 min) was 70.75%. For the same compound, the “% of compound remaining when incubated in rat liver microsomes with NADPH” value ([4]; 45 min) was 71.89%, the “% of compound remaining when incubated in rat liver microsomes with NADPH” value ([4]; 60 min) was 69.91% and the half-life [4, 11] was 1.02 h. For the same compound, the “Microsomal stability, % remaining” value ([5]; 0 min) was 100.00%, the “Microsomal stability, % remaining” value ([5]; 5 min) was 70.67% and the “Microsomal stability, % remaining” value ([5]; 10 min) was 56.31%. The “Microsomal stability, % remaining” value ([5]; 15 min) was 49.52%, the “Microsomal stability, % remaining” value ([5]; 30 min) was 45.48% and the “Microsomal stability, % remaining” value ([5]; 45 min) was 40.08%. The “Microsomal stability, % remaining” value ([5]; 60 min) was 35.28%, the “% of compound remaining when incubated in human liver microsomes with NADPH” value ([5]; 0 min) was 100.00% and the “% of compound remaining when incubated in human liver microsomes with NADPH” value ([5]; 5 min) was 70.67%. For the same compound, the “% of compound remaining when incubated in human liver microsomes with NADPH” value ([5]; 10 min) was 56.31%, the “% of compound remaining when incubated in human liver microsomes with NADPH” value ([5]; 15 min) was 49.52% and the “% of compound remaining when incubated in human liver microsomes with NADPH” value ([5]; 30 min) was 45.48%. For the same compound, the “% of compound remaining when incubated in human liver microsomes with NADPH” value ([5]; 45 min) was 40.08%, the “% of compound remaining when incubated in human liver microsomes with NADPH” value ([5]; 60 min) was 35.28% and the half-life [5, 12] was 0.201 h. For the same compound, the “oral bioavailability / oral pharmacokinetics in rats (in words)” value ([6]; rats) was “much inferior oral pharmacokinetic parameters”, the bioavailability ([6]; rat, plasma) was less than 1% and the half-life ([6]; rat, plasma) was 6.9 ± 7.5 h. For the same compound, the AUC(0-t) ([6]; rat, plasma) was 28 ± 15 µg·h/mL and the Cmax ([6]; rat, plasma) was 51 ± 30 ng/mL.
In the case of `CC(C)(C)C[C@H]1N[C@@H](C(=O)NCCC(C)(O)CO)[C@H](c2cccc(Cl)c2)[C@@]12C(=O)Nc1cc(Cl)c(F)cc12` (stereo partly shown) [MI-758], the IC50 [1] is reported as less than 1000 nM, the IC50 [2, 7] is reported as 19100 ± 3600 nM and the IC50 [2, 8] is reported as 600 nM. The IC50 [3, 9] was 600 nM, the IC50 [3, 10] was 18700 ± 7100 nM and the “Microsomal stability, % remaining” value ([4]; 0 min) was 100.00%. The “Microsomal stability, % remaining” value ([4]; 5 min) was 96.52%, the “Microsomal stability, % remaining” value ([4]; 10 min) was 92.93% and the “Microsomal stability, % remaining” value ([4]; 15 min) was 82.50%. The “Microsomal stability, % remaining” value ([4]; 30 min) was 73.32%, the “Microsomal stability, % remaining” value ([4]; 45 min) was 69.33% and the “Microsomal stability, % remaining” value ([4]; 60 min) was 66.93%. For the same compound, the “microsomal stability (in words)” value [4] was “improved stability over MI-219”, the “% of compound remaining when incubated in rat liver microsomes with NADPH” value ([4]; 0 min) was 100.00% and the “% of compound remaining when incubated in rat liver microsomes with NADPH” value ([4]; 5 min) was 96.52%. For the same compound, the “% of compound remaining when incubated in rat liver microsomes with NADPH” value ([4]; 10 min) was 92.93%, the “% of compound remaining when incubated in rat liver microsomes with NADPH” value ([4]; 15 min) was 82.50% and the “% of compound remaining when incubated in rat liver microsomes with NADPH” value ([4]; 30 min) was 73.32%. For the same compound, the “% of compound remaining when incubated in rat liver microsomes with NADPH” value ([4]; 45 min) was 69.33%, the “% of compound remaining when incubated in rat liver microsomes with NADPH” value ([4]; 60 min) was 66.93% and the half-life [4, 11] was 1.33 h. For the same compound, the “Microsomal stability, % remaining” value ([5]; 0 min) was 100.00%, the “Microsomal stability, % remaining” value ([5]; 5 min) was 95.88% and the “Microsomal stability, % remaining” value ([5]; 10 min) was 89.21%. For the same compound, the “Microsomal stability, % remaining” value ([5]; 15 min) was 81.61%, the “Microsomal stability, % remaining” value ([5]; 30 min) was 65.20% and the “Microsomal stability, % remaining” value ([5]; 45 min) was 54.52%. The “Microsomal stability, % remaining” value ([5]; 60 min) was 51.45%, the “microsomal stability (in words)” value [5] was “improved stability over MI-219” and the “% of compound remaining when incubated in human liver microsomes with NADPH” value ([5]; 0 min) was 100.00%. The “% of compound remaining when incubated in human liver microsomes with NADPH” value ([5]; 5 min) was 95.88%, the “% of compound remaining when incubated in human liver microsomes with NADPH” value ([5]; 10 min) was 89.21% and the “% of compound remaining when incubated in human liver microsomes with NADPH” value ([5]; 15 min) was 81.61%. The “% of compound remaining when incubated in human liver microsomes with NADPH” value ([5]; 30 min) was 65.20%, the “% of compound remaining when incubated in human liver microsomes with NADPH” value ([5]; 45 min) was 54.52% and the “% of compound remaining when incubated in human liver microsomes with NADPH” value ([5]; 60 min) was 51.45%. For the same compound, the half-life [5, 12] was 0.825 h, the “oral bioavailability / oral pharmacokinetics in rats (in words)” value ([6]; rats) was “good oral bioavailability and pharmacokinetic parameters” and the bioavailability ([6]; rat, plasma) was 38%. For the same compound, the half-life ([6]; rat, plasma) was 1.9 ± 0.1 h, the AUC(0-t) ([6]; rat, plasma) was 4280 ± 2690 µg·h/mL and the Cmax ([6]; rat, plasma) was 1490 ± 1120 ng/mL.
In the case of `CC(C)(C)C[C@H]1N[C@@H](C(=O)NC2CCC(NS(C)(=O)=O)CC2)[C@H](c2cccc(Cl)c2F)[C@@]12C(=O)Nc1cc(Cl)ccc12` (stereo partly shown) [MI-771], the IC50 [1] is reported as less than 1000 nM, the “binding to MDM2 (in words)” value ([1]; human MDM2 protein) is reported as “high affinities” and the IC50 [2, 8] is reported as 1000 ± 300 nM. The IC50 ([2]; read-out: HCT-116 (p53-/-) IC50, Table 19A, HCT-116 p53-/-) was 12000 ± 1100 nM, the IC50 [3, 9] was 1100 ± 100 nM and the IC50 ([3]; Homo sapiens, SJSA-1, Table 19A, SJSA-1 cells, p53 wild-type, cell growth, read-out: SJSA-1 (p53 wild-type) IC50) was 1200 ± 300 nM. For the same compound, the IC50 ([3]; Table 19A, PC-3 cells, deleted p53, cell growth, read-out: PC-3 (deleted p53) IC50) was 13700 ± 4400 nM, the “cell growth inhibition (in words)” value ([3]; cancer cell lines with wild-type p53) was “effectively inhibit cell growth” and the “microsomal stability (in words)” value [4] was “very poor microsomal stability”. The t1/2 [4, 11] was 2.69 min, the “% of compound remaining when incubated in rat liver microsomes with NADPH” value ([4]; 0 min) was 100.00% and the “% of compound remaining when incubated in rat liver microsomes with NADPH” value ([4]; 5 min) was 20.48%. The “% of compound remaining when incubated in rat liver microsomes with NADPH” value ([4]; 10 min) was 7.59%, the “% of compound remaining when incubated in rat liver microsomes with NADPH” value ([4]; 15 min) was 3.57% and the “% of compound remaining when incubated in rat liver microsomes with NADPH” value ([4]; 30 min) was 1.22%. The “% of compound remaining when incubated in rat liver microsomes with NADPH” value ([4]; 45 min) was 0.66%, the “% of compound remaining when incubated in rat liver microsomes with NADPH” value ([4]; 60 min) was 0.46% and the “microsomal stability (in words)” value [5] was “very poor microsomal stability”. For the same compound, the t1/2 [5, 12] was 3.12 min, the “% of compound remaining when incubated in human liver microsomes with NADPH” value ([5]; 0 min) was 100.00% and the “% of compound remaining when incubated in human liver microsomes with NADPH” value ([5]; 5 min) was 27.98%. The “% of compound remaining when incubated in human liver microsomes with NADPH” value ([5]; 10 min) was 10.82%, the “% of compound remaining when incubated in human liver microsomes with NADPH” value ([5]; 15 min) was 4.30% and the “% of compound remaining when incubated in human liver microsomes with NADPH” value ([5]; 30 min) was 0.82%. The “% of compound remaining when incubated in human liver microsomes with NADPH” value ([5]; 45 min) was 0.00%, the “% of compound remaining when incubated in human liver microsomes with NADPH” value ([5]; 60 min) was 0.00% and the CLz ([6]; rat, IV, 5 mg/kg, plasma, parent compound) was 36.7 mL/min/kg. For the same compound, the Vd ([6]; rat, plasma, iv, 5 mg/kg, rat, IV, 5 mg/kg, plasma, parent compound, read-out: Vz) was 7.1 L/kg and the “pharmacokinetic profile (in words)” value ([6]; rats, intravenous and oral routes of dosing) was “very poor pharmacokinetic profile”.
